In one experiment the target is T1, MTF1 (Mus musculus, UniProt Q07243).
T1 construct: endogenous in cells; host or cells: primary mouse articular chondrocytes
The experiment in a line: MTF1 activity reporter gene assay and immunostaining in chondrocytes. Format: cell-based. As to the method:
The MTF1 reporter gene assay kit was obtained from SABiosciences. Chondrocytes were transfected for 6 hours with a metal response element (MRE) reporter construct and a constitutive Renilla luciferase construct using Lipofectamine 2000 (Invitrogen). Transfected cells were infected with Ad-Mtf1 or Ad-Zip8 for 2 hours or treated with metal ions. Cells were harvested 24 hours after treatment, and firefly luciferase and Renilla luciferase activities were measured using a Dual Luciferase Assay System (Promega). […] MTF1 was detected by immunofluorescence microscopy. Images were acquired using a fluorescence microscope, and at least 200 cells were examined in multiple fields per condition to quantify the percentage of nuclear MTF1-positive cells.
A general note: In a reporter assay the amount or activity of a reporter protein is the signal.

For another experiment, the system named is DMM-operated mice. Description: DMM surgery-induced OA with Zn^2+ diets or intraperitoneal ZnCl2. Format: in vivo, mouse. The following applies: intraperitoneal, 5 mg/kg body weight twice a week, 6 weeks after surgery. The method, then: FIG. 6m represents that knee joint sections were prepared from sham- and DMM-operated mice that were fed low-Zn^2+ (<0.5 mg zinc/kg), adequate-Zn^2+ (30 mg zinc/kg), or high-Zn^2+ (300 mg zinc/kg) diets. Cartilage destruction was determined by safranin-O/hematoxylin staining and quantified (n=10).
FIG. 6n represents that sham- and DMM-operated mice were intraperitoneally injected with PBS or ZnCl2 (5 mg/kg body weight) twice a week until they are sacrificed 6 weeks after surgery. Knee joint sections were stained with safranin-O/hematoxylin and cartilage destruction was determined (n=10). […]
Human OA cartilage was frozen, sectioned at 10-μm thickness, and fixed in paraformaldehyde. Sulfate proteoglycan was detected with alcian blue staining. Human ZIP8 was detected by immunostaining. […] Sections were deparaffinized in xylene, hydrated with graded ethanol, and stained with safranin-O. Cartilage destruction was scored by two blinded observers using the OARSI grading system (Glasson et al., 2010). Synovitis was determined by safranin-O and hematoxylin staining, and synovial inflammation (grade 0-3) was scored as described previously (Yang et al., 2010). Osteophyte development was identified by safranin-O staining, and osteophyte maturity was quantified as described previously (Oh et al., 2012). […]

The next experiment relates to Mt1 and Mt2. The experiment in a line: mRNA and protein levels of MT1 and MT2 in chondrocytes. The experiment is classed as cell-based, mouse. The following applies: primary cultured chondrocytes. From the text: (§1) Total RNA was extracted from primary cultured chondrocytes using the TRI reagent (Molecular Research Center Inc.). For the isolation of RNA from knee joints, cartilage tissues were scraped with a blade to remove cartilage, and RNA was isolated using the TRI reagent and Purelink RNA mini kit (Ambion). The RNA was reverse transcribed, and the resulting cDNA was amplified by PCR.

The subject of experiment [1] is matrix-degrading enzymes (MMP3, MMP9, MMP12, MMP13, and ADAMTS5). Description: mRNA (qRT-PCR) and protein (Western blotting) levels of matrix-degrading enzymes in chondrocytes. Format: cell-based, mouse. The method, then: Adenoviruses expressing mouse Zip8 (Ad-Zip8) and Mtf1 (Ad-Mtf1) were purchased from Vector Biolabs. Mouse articular chondrocytes were cultured for 2 days, infected with empty virus (Ad-C), Ad-Zip8, or Ad-Mtf1 for 2 hours at the indicated multiplicity of infection (MOI), and cultured for 24 hours, followed by further analyses.
as §1
Transcript levels were quantified by qRT-PCR. siRNAs targeting Zip8 and Mtf1 were obtained from Dharmacon and transfected using Lipofectamine 2000. Non-targeting (scrambled) siRNA was used as a negative control. Chondrocytes were transfected by incubating for 6 hours with siRNA and Lipofectamine 2000 (Invitrogen), and infected with adenoviruses as described above. Therapeutic antibodies for obstruction of ZIP8 function were purchased from Santa Cruz Biotechnology and MyBioSource Company, and treated in chondrocytes for 24 hours.
Total cell lysates were prepared in lysis buffer (150 mM NaCl, 1% NP-40, 50 mM Tris, 5 mM NaF) and used to detect cellular proteins (ZIP8, MTF1, and ERK). Secreted proteins (MMP3, MMP13, and ADAMTS5) were detected after trichloroacetic acid (TCA) precipitation from 900 μl of serum-free conditioned medium. All lysis buffers contained a cocktail of protease inhibitors and phosphatase inhibitors (Roche).
For orientation: Quantitative PCR measures a nucleic acid by following its amplification.

The mark [2] stands for this setting: Ad-Zip8 chondrocytes, TPEN 1 μM pre-incubated with 1 μM metal ion.

T1 sequence (Q07243 whole entry): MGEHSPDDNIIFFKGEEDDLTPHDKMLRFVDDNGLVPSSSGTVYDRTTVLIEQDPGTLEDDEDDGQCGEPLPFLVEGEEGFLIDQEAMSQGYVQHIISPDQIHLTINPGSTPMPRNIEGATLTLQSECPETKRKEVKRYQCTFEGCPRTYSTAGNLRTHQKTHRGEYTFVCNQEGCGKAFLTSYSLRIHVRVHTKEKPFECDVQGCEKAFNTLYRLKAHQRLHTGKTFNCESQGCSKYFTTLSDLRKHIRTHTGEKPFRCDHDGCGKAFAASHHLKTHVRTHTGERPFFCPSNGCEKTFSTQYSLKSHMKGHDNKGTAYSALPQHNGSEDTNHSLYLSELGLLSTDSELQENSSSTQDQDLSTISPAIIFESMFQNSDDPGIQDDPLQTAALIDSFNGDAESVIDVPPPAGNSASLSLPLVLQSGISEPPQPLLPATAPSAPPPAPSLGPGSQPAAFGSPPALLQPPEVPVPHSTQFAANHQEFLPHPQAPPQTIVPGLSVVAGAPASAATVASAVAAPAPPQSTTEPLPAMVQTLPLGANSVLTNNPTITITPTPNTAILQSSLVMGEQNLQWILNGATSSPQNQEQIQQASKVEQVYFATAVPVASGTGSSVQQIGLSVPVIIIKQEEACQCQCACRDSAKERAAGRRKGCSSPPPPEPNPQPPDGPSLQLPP

As for `[Cl-].[Cl-].[Zn+2]` [ZnCl2], the “inhibitory effects of TPEN on MTF1 transcriptional activity, effect of pre-incubation of TPEN with the metal salt” value on MTF1 (setting [2]) is given as “abolished”. The “nuclear localization of MTF1” value at MTF1 (chondrocytes) is recorded as “most effective”. Moreover, the “MTF1 transcriptional activity, effect of the substance itself” value on MTF1 (chondrocytes, reporter gene assay) is “most effective”. In addition, the DMM-induced cartilage destruction entry with DMM-operated mice is listed as “augmented”. Also, the “expression of Mt1 and Mt2” value with Mt1 and Mt2 is “significantly increased”. In experiment [1] (setting [2]), the “inhibitory effects of TPEN on the ZIP8-mediated expression of matrix-degrading enzymes, effect of pre-incubation of TPEN with the metal salt” value is “effectively abolished”. Also, the “expression of matrix-degrading enzymes caused by the substance itself” value in experiment [1] (chondrocytes, metal salts 100 μM (CdCl2 1 μM)) is “up-regulated”.

The record behind these values is patent US9526782B2, “Pharmaceutical compositions comprising inhibitors of zinc-ZIP8-MTF1 as active ingredients for preventing or treating a joint disease” (GWANGJU INSTITUTE OF SCIENCE AND TECHNOLOGY, priority 2014, dated 2016).
